Laboratory results taken from patent US20240299387A1, “HETEROCYCLIC EGFR INHIBITORS FOR USE IN THE TREATMENT OF CANCER” (Blueprint Medicines Corporation, priority 2021, published 2024).

What was measured:
EGFR (L858R T790M C797S) = target: T1, EGFR (L858R T790M C797S) (Homo sapiens, UniProt P00533, C797S/L858R/T790M); assay: Biochemical EGFR inhibition assay (Caliper mobility shift), EGFR LRTMCS mutant; conditions: LRTMCS (PH) IC50 (nM) @ 1 mM ATP (Num)
T1 construct: purchased SignalChem E10-122VG
T1 sequence (P00533 25-1210 T790M/C797S/L858R): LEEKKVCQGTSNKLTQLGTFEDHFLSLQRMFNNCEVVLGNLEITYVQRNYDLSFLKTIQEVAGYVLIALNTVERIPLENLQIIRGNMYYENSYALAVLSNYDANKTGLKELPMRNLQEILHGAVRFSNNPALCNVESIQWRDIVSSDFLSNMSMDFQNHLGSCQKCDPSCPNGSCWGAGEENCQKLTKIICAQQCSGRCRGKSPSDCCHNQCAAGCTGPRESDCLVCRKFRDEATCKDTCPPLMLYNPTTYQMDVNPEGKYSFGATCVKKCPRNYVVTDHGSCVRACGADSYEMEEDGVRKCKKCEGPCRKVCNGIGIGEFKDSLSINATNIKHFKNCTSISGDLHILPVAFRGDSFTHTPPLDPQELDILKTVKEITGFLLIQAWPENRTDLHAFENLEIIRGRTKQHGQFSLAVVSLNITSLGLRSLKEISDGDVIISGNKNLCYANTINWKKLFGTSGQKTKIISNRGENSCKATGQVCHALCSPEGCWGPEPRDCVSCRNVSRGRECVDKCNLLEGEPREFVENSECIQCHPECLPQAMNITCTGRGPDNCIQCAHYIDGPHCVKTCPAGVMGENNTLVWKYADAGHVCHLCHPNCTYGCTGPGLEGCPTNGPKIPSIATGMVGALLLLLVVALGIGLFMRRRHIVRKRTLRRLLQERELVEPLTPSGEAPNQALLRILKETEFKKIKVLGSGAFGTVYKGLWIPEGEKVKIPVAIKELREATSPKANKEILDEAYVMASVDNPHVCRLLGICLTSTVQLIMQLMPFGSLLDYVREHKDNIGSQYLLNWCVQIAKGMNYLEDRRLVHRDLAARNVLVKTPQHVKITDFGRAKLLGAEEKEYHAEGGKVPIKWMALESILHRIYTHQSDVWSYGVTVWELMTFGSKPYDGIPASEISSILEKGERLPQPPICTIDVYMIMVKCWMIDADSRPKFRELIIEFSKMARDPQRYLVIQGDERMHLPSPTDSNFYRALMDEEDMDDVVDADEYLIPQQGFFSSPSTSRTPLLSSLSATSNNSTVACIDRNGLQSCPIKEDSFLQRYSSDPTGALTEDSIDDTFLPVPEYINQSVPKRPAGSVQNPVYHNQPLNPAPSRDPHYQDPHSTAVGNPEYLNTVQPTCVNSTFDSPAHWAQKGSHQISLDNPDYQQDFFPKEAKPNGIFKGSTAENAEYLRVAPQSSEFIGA
How it was run: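 Caliper mobility shift read-out: product and substrate peptides separated by electrophoresis and quantified. Reactions at 25° C. taken to 10–20% peptide phosphorylation, quenched with 35 mM EDTA. Apparent IC50 from percent activity vs log [compound].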

[1] = target: T2, EGFR L858R T790M in NCI-H1975 cell line (Homo sapiens, UniProt P00533, L858R/T790M); assay: NCI-H1975 pEGFR AlphaLISA assay; format: cell-based; conditions: NCI-H1975 cells (EGFR L858R T790M), p-EGFR (Tyr1068), 4-5 hours incubation; read-out: Ext pEGFR H1975 GMean IC50 (nM) Protocol: @Pharmaron AlphaLISA (Num)
T2 construct: host or cells: NCI-H1975
T2 sequence (P00533 25-1210 T790M/L858R): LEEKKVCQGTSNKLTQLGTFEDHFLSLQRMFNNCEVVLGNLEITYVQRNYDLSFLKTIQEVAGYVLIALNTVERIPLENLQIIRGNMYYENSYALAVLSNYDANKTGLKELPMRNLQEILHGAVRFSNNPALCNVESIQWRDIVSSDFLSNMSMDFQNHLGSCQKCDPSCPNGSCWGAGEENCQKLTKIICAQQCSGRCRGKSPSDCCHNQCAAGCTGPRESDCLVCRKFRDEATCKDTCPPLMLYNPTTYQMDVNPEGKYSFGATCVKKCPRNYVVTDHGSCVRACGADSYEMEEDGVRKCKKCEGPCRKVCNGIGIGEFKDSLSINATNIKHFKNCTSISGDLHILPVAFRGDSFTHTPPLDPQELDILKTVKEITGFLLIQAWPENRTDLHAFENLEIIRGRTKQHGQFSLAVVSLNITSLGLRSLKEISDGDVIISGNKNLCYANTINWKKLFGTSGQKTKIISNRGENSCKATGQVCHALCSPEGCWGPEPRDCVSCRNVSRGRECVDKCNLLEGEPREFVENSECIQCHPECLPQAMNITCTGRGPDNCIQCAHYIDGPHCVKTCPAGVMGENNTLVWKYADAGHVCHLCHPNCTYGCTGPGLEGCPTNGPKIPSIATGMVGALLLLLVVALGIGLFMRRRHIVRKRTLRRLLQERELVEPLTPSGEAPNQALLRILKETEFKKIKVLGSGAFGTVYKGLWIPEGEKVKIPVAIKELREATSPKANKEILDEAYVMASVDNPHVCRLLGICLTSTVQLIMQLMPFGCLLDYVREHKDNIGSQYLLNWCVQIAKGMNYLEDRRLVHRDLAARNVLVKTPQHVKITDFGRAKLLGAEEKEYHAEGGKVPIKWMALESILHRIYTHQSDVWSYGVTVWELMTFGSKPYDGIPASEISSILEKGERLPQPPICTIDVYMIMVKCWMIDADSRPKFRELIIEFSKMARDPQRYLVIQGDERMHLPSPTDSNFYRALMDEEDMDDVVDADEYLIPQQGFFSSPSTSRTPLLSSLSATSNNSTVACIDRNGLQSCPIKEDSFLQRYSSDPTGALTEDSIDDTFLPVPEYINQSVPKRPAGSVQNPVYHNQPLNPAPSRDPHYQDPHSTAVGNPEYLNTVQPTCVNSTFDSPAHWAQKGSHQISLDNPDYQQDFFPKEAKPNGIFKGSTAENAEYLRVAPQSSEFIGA
How it was run: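 Phospho-EGFR measured by AlphaLISA after overnight donor-bead incubation; IC50 from percent pEGFR inhibition versus log concentration.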

SMILES | IC50 (EGFR (L858R T790M C797S)) [nM] | IC50 [1] [nM]
CC(C)c1ccc(OC[C@H](C)n2cnnc2)c2cnc(Nc3ccnc(N4CC[C@](C)(O)[C@H](F)C4)n3)cc12 [Example 36, (3R,4S)-1-(4-((8-((S)-2-(4H-1,2,4-triazol-4-yl)propoxy)-5-isopropylisoquinolin-3-yl)amino)pyrimidin-2-yl)-3-fluoro-4-methylpiperidin-4-ol] | 15 to 20 | > 50
CC(C)c1ccc(OC[C@@H](C)n2cnnc2)c2cnc(Nc3ccnc(N4CC[C@](C)(O)[C@H](F)C4)n3)cc12 [Example 37, (3R,4S)-1-(4-((8-((R)-2-(4H-1,2,4-triazol-4-yl)propoxy)-5-isopropylisoquinolin-3-yl)amino)pyrimidin-2-yl)-3-fluoro-4-methylpiperidin-4-ol] | 15 to 20 | 30 to 50
CC(C)c1ccc(OCCc2cncn2C)c2cnc(Nc3ccnc(N4CC[C@](C)(O)[C@H](F)C4)n3)cc12 [Example 38, (3R,4S)-3-fluoro-1-(4-((5-isopropyl-8-(2-(1-methyl-1H-imidazol-5-yl)ethoxy)isoquinolin-3-yl)amino)pyrimidin-2-yl)-4-methylpiperidin-4-ol] | 15 to 20 | > 50
CC(C)c1ccc(OCCn2cncn2)c2cnc(Nc3ccnc(N4CC[C@](C)(O)[C@H](F)C4)n3)cc12 [Example 39, (3R,4S)-1-(4-((8-(2-(1H-1,2,4-triazol-1-yl)ethoxy)-5-isopropylisoquinolin-3-yl)amino)pyrimidin-2-yl)-3-fluoro-4-methylpiperidin-4-ol] | 15 to 20 | > 50
CO[C@@H]1CCN(c2nccc(Nc3cc4c(C(C)C)ccc(OCCn5cnnc5)c4cn3)n2)C[C@@H]1F [Example 40, 8-(2-(4H-1,2,4-triazol-4-yl)ethoxy)-N-(2-((3S,4R)-3-fluoro-4-methoxypiperidin-1-yl)pyrimidin-4-yl)-5-isopropylisoquinolin-3-amine] | < 15 | > 50
CO[C@H]1CCN(c2nccc(Nc3cc4c(C(C)C)ccc(OCCn5cnnc5)c4cn3)n2)C[C@H]1F [Example 41, 8-(2-(4H-1,2,4-triazol-4-yl)ethoxy)-N-(2-((3R,4S)-3-fluoro-4-methoxypiperidin-1-yl)pyrimidin-4-yl)-5-isopropylisoquinolin-3-amine] | < 15 | 20 to 30
Cc1noc(C)c1CCOc1ccc(C(C)C)c2cc(Nc3ccnc(N4CC[C@@H](OCCO)[C@@H](F)C4)n3)ncc12 [Example 43, 2-(((3S,4R)-1-(4-((8-(2-(3,5-dimethylisoxazol-4-yl)ethoxy)-5-isopropylisoquinolin-3-yl)amino)pyrimidin-2-yl)-3-fluoropiperidin-4-yl)oxy)ethan-1-ol] | 15 to 20 | > 50
[2H]C([2H])([2H])O[C@H]1CCN(c2nccc(Nc3cc4c(C(C)C)ccc(OCCn5cnnc5)c4cn3)n2)C[C@H]1F [Example 44, 8-(2-(4H-1,2,4-triazol-4-yl)ethoxy)-N-(2-((3R,4S)-3-fluoro-4-(methoxy-d3)piperidin-1-yl)pyrimidin-4-yl)-5-isopropylisoquinolin-3-amine] | 15 to 20 | > 50
[2H]C([2H])([2H])O[C@@H]1CCN(c2nccc(Nc3cc4c(C(C)C)ccc(OCCn5cnnc5)c4cn3)n2)C[C@@H]1F [Example 45, 8-(2-(4H-1,2,4-triazol-4-yl)ethoxy)-N-(2-((3S,4R)-3-fluoro-4-(methoxy-d3)piperidin-1-yl)pyrimidin-4-yl)-5-isopropylisoquinolin-3-amine] | 15 to 20 | > 50
[2H]C([2H])([2H])O[C@H]1CCN(c2nccc(Nc3cc4c(C(C)C)ccc(OC[C@H]5CCC(=O)N5C)c4cn3)n2)C[C@H]1F [Example 46, (R)-5-(((3-((2-((3R,4S)-3-fluoro-4-(methoxy-d3)piperidin-1-yl)pyrimidin-4-yl)amino)-5-isopropylisoquinolin-8-yl)oxy)methyl)-1-methylpyrrolidin-2-one] | 15 to 20 | > 50
[2H]C([2H])([2H])O[C@@H]1CCN(c2nccc(Nc3cc4c(C(C)C)ccc(OC[C@H]5CCC(=O)N5C)c4cn3)n2)C[C@@H]1F [Example 47, (R)-5-(((3-((2-((3S,4R)-3-fluoro-4-(methoxy-d3)piperidin-1-yl)pyrimidin-4-yl)amino)-5-isopropylisoquinolin-8-yl)oxy)methyl)-1-methylpyrrolidin-2-one] | 15 to 20 | > 50
[2H]C([2H])([2H])O[C@H]1CCN(c2nccc(Nc3cc4c(C(C)C)ccc(OCCn5ccnc5)c4cn3)n2)C[C@H]1F [Example 48, 8-(2-(1H-imidazol-1-yl)ethoxy)-N-(2-((3R,4S)-3-fluoro-4-(methoxy-d3)piperidin-1-yl)pyrimidin-4-yl)-5-isopropylisoquinolin-3-amine] | 15 to 20 | > 50
[2H]C([2H])([2H])O[C@@H]1CCN(c2nccc(Nc3cc4c(C(C)C)ccc(OCCn5ccnc5)c4cn3)n2)C[C@@H]1F [Example 49, 8-(2-(1H-imidazol-1-yl)ethoxy)-N-(2-((3S,4R)-3-fluoro-4-(methoxy-d3)piperidin-1-yl)pyrimidin-4-yl)-5-isopropylisoquinolin-3-amine] | 15 to 20 | > 50
CC(C)c1ccc(OC[C@@H]2COC(=O)N2C)c2cnc(Nc3ccnc(N4CC[C@@H](OCCN(C)C)[C@@H](F)C4)n3)cc12 [Example 53, (R)-4-(((3-((2-((3S,4R)-4-(2-(dimethylamino)ethoxy)-3-fluoro-piperidin-1-yl)pyrimidin-4-yl)amino)-5-isopropylisoquinolin-8-yl)oxy)methyl)-3-methyloxazolidin-2-one] | 15 to 20 | > 50
CNCCO[C@@H]1CCN(c2nccc(Nc3cc4c(C(C)C)ccc(OC[C@@H]5COC(=O)N5C)c4cn3)n2)C[C@@H]1F [Example 54, (R)-4-(((3-((2-((3S,4R)-3-fluoro-4-(2-(methylamino)ethoxy)piperidin-1-yl)pyrimidin-4-yl)amino)-5-isopropylisoquinolin-8-yl)oxy)methyl)-3-methyloxazolidin-2-one] | 15 to 20 | > 50
CO[C@@H]1CCN(c2nccc(Nc3cc4c(C(C)C)ncc(OCCn5cnnc5)c4cn3)n2)C[C@@H]1F [Example 55, 8-(2-(4H-1,2,4-triazol-4-yl)ethoxy)-N-(2-((3S,4R)-3-fluoro-4-methoxypiperidin-1-yl)pyrimidin-4-yl)-5-isopropyl-2,6-naphthyridin-3-amine] | 15 to 20 | > 50
CC(C)c1cnc(C(=O)NC2CN(C)C2)c2cnc(Nc3ccnc(N4CC[C@@H](O)[C@@](C)(F)C4)n3)cc12 [Example 59, 6-((2-((3S,4R)-3-fluoro-4-hydroxy-3-methylpiperidin-1-yl)pyrimidin-4-yl)amino)-4-isopropyl-N-(1-methylazetidin-3-yl)-2,7-naphthyridine-1-carboxamide] | < 15 | 30 to 50
CC(C)c1cnc(C(=O)NC2COC2)c2cnc(Nc3ccnc(N4CC[C@@H](O)[C@@](C)(F)C4)n3)cc12 [Example 60, 6-((2-((3S,4R)-3-fluoro-4-hydroxy-3-methylpiperidin-1-yl)pyrimidin-4-yl)amino)-4-isopropyl-N-(oxetan-3-yl)-2,7-naphthyridine-1-carboxamide] | 15 to 20 | 30 to 50
